# US20140057877A1, “Therapeutic polyamine compositions and their synthesis” (priority 2002, published 2014)
# Where “and” joins values, the source holds several entries; their conditions need not be identical. Identical values can stand only once. Like-named read-outs stand apart in the source and are kept apart here.
# How the values were obtained:
# M. Luteus (ATCC 499732) = assay: Bacterial survival, toxin diazoxide and antidotes
# Protocol: (§2) Bacteria were inoculated and cultured in nutrient agar for eighteen hours, using a shaking incubator at 140 r.p.m and 35° C. Medium contained 10 mM HEPES buffer at pH 7. Cells were centrifuged twice in Sorval RC-5 centrifuge 12,000 r.pm.×15 minutes at 4° C. and washed twice in 10 uM HEPES buffer. The resuspended cells were counted using a Hemocrit and diluted to a level of 5×10^1 cells per ml in 10 μM HEPES. The cells, the following toxins; methyl viologen (paraquat), methyl viologen (MPP^+), rotenone, daizoxide, streptozotocin and alloxan, and antidotes were added, reaching final volumes of 1 ml in Eppendorf tubes and placed on a rotator at room temperature. 10 μM diethylenetriaminepentaacetic acid was added to the samples to terminate the reactions at the specified times of either twenty or sixty minutes. 300 μL of cells were plated on Petri plates containing nutrient agar and incubated at 35° C. overnight. Colonies were counted after 20 hours. Percentage survival as compared with culture controls is calculated from the means of triplicates in each experimental group.
# [1] = test system: E. coli (GM 7359) alkA tag E. coli mutant; settings: 60 minutes
# Protocol: as §2
# [2] = pKa by potentiometric titration; format: physicochemical; settings: aqueous solution, ionic strength 0.10, 25° C.
# Protocol: PKa's were determined by standard potentiometric titration methods in aqueous solution with an ionic strength of 0.10 at 25° C. Values are reported as log K values of the equilibrium constant.
# [3] = test system: E. coli (GM 7359) alkA tag E. coli mutant; assay: Bacterial survival, toxin streptozotocin and antidotes; settings: 60 minutes
# Protocol: as §2
# E. coli (ATCC 35150) = format: cell-based
# Protocol: (§1) Medium contained 10 mM HEPES buffer at pH 7. […] Colonies were counted after 20 hours.
# S. aureus (ATCC 29213) [4] = assay: Bacterial survival, toxin diazoxide and antidotes; format: cell-based; settings: 60 minutes
# Protocol: as §1
# [5] = Oil water partition coefficients (octanol/water, HPLC); format: physicochemical; settings: 1:1 octanol/water, shaken 12 hours, HPLC
# Protocol: Partition coefficients were determined by dissolving the compound in a 1:1 mixture of octanol/water and shaking the solution for 12 hours. HPLC was used to determine the partition coefficient. The reported values are the log of the octanol/water partition
# S. aureus (ATCC 29213) [6] = assay: Bacterial survival, toxin MPP^+ and antidotes; settings: 60 minutes
# Protocol: as §2
# [7] = test system: E. coli (GM 7359) alkA tag E. coli mutant; settings: 60 minutes; remark: listed apart in the source
# Protocol: as §2
# [8] = 0.2 mM Diazoxide + 1 uM antidote, T60
# [9] = 0.2 mM Diazoxide + 5 uM antidote, T60
# [10] = 0.2 mM Diazoxide + 10 uM antidote, T60
# [11] = 0.2 mM Diazoxide + 200 uM antidote, T60
# [12] = substance alone 200 uM, T20 (20 minutes)
# [13] = substance alone 200 uM, T60 (60 minutes)
# [14] = 0.2 mM Diazoxide + 1 uM antidote, T20
# [15] = 0.2 mM Diazoxide + 2.5 uM antidote, T20
# [16] = 0.2 mM Diazoxide + 2.5 uM antidote, T60
# [17] = 100 uM Streptozotocin + 5 uM antidote
# [18] = 0.15 mM Diazoxide + 5 uM antidote
# [19] = 0.2 mM Diazoxide + 12.5 uM antidote, T60
# [20] = 0.2 mM Diazoxide + 50 uM antidote, T20
# [21] = 0.2 mM Diazoxide + 100 uM antidote, T60
# [22] = substance alone 100 uM, T20 (20 minutes)
# [23] = substance alone 100 uM, T60 (60 minutes)
# [24] = 100 uM Rotenone + 2.5 uM antidote
# [25] = 100 uM Rotenone + 5 uM antidote
compound,measurement,setting,value
"Vanadyl (1,4,8,11-tetraaza-1,4,8,11-tetrabicyclo[3.3.1]non-3-ylcyclotetradecane)(Cl)2 [Vanadium Cyclam Adamantane]",Mean % Survival,M. Luteus (ATCC 499732); [8],100%
same,Mean % Survival,M. Luteus (ATCC 499732); [9],100%
same,Mean % Survival,M. Luteus (ATCC 499732); [10],100%
same,Mean % Survival,"M. Luteus (ATCC 499732); 0.2 mM Diazoxide + 50 uM antidote, T60",100%
same,Mean % Survival,M. Luteus (ATCC 499732); [11],100%
same,Mean % Survival,M. Luteus (ATCC 499732); [12],100%
same,Mean % Survival,M. Luteus (ATCC 499732); [13],100%
"O=C1NC(=O)C(=O)C(=O)N1 [Alloxan, reference compound]",Mean % Survival,[1]; substance alone 2 mM,20%
"CN1CCCN(C)CCN(C)CCCN(C)CC1 [cyclam-methylated, 1,4,8,11-tetraaza-1,4,8,11-tetramethylcyclotetradecane]",pKa,[2]; read-out: pKa(1),9.7
same,pKa,[2]; read-out: pKa(2),9.3
same,pKa,[2]; read-out: pKa(3),3.1
same,pKa,[2]; read-out: pKa(4),2.6
"[2-(bicyclo[3.3.1]non-3-ylamino)ethyl](3-{2-(bicyclo[3.3.1]non-3-ylamino)ethyl]amino}propyl)amine [2,3,2-tetramine adamantane]",Mean % Survival,[1]; 2 mM Alloxan + 1 uM antidote,51%
same,Mean % Survival,[1]; 2 mM Alloxan + 100 uM antidote,69%
same,Mean % Survival,[1]; substance alone 100 uM,100%
"CNCCN(C)CCCN(C)CCNC [2,3,2-tetramethyl, N,N′,N″,N′″-tetramethyl 2,3,2-tetramine]",pKa(1),[2],10.2
same,pKa(2),[2],9.4
same,pKa(3),[2],6.1
same,pKa(4),[2],2.9
"NCCCCNCCCN [Spermidine, reference compound]",Mean % Survival,M. Luteus (ATCC 499732); [14],100%
same,Mean % Survival,M. Luteus (ATCC 499732); [8],96%
same,Mean % Survival,M. Luteus (ATCC 499732); [15],100%
same,Mean % Survival,M. Luteus (ATCC 499732); [16],100%
same,Mean % Survival,"M. Luteus (ATCC 499732); 0.2 mM Diazoxide + 200 uM antidote, T20",100%
same,Mean % Survival,M. Luteus (ATCC 499732); [12],100%
same,Mean % Survival,M. Luteus (ATCC 499732); [13],100%
same,Mean % Survival,[3]; [17],87%
same,Mean % Survival,[3]; substance alone 5 uM,97%
NCCCNCCCCNCCCN [Spermine],Mean % Survival,E. coli (ATCC 35150),100% and 96% and 60%
same,Mean % Survival,S. aureus (ATCC 29213) [4]; [18],71%
same,Mean % Survival,S. aureus (ATCC 29213) [4]; substance alone 5 uM,99%
"CNCCNCCCNCCNC [2,3,2-methylated on N1/N4, N,N′″-dimethyl 2,3,2-tetramine]",Log Partition Coefficient Octanol:Water,[5],0.4
"1,4,8,11-tetraaza-1,4,8,11-tetrabicyclo[3.3.1]non-3-ylcyclotetradecane [Cyclam Adamantane]",Mean % Survival,"M. Luteus (ATCC 499732); 0.2 mM Diazoxide + 12.5 uM antidote, T20",100%
same,Mean % Survival,M. Luteus (ATCC 499732); [19],100%
same,Mean % Survival,M. Luteus (ATCC 499732); [20],100%
same,Mean % Survival,"M. Luteus (ATCC 499732); 0.2 mM Diazoxide + 100 uM antidote, T20",100%
same,Mean % Survival,M. Luteus (ATCC 499732); [21],100%
same,Mean % Survival,M. Luteus (ATCC 499732); [22],100%
same,Mean % Survival,M. Luteus (ATCC 499732); [23],100%
same,Mean % Survival,[3]; 100 uM Streptozotocin + 1 uM antidote,93%
same,Mean % Survival,[3]; [17],100%
same,Mean % Survival,[3]; 100 uM Streptozotocin + 12.5 uM antidote,100%
same,Mean % Survival,[3]; substance alone 12.5 uM,100%
same,Mean % Survival,S. aureus (ATCC 29213) [6]; 0.2 mM MPP^+ + 1 uM antidote,100%
same,Mean % Survival,S. aureus (ATCC 29213) [6]; 0.2 mM MPP^+ + 2.5 uM antidote,100%
same,Mean % Survival,S. aureus (ATCC 29213) [6]; 0.2 mM MPP^+ + 5.0 uM antidote,100%
same,Mean % Survival,S. aureus (ATCC 29213) [6]; 0.2 mM MPP^+ + 7.5 uM antidote,100%
same,Mean % Survival,S. aureus (ATCC 29213) [6]; substance alone 30 uM,100%
same,Mean % Survival,[7]; [24],97%
same,Mean % Survival,[7]; [25],89%
same,Mean % Survival,[7]; 100 uM Rotenone + 12.5 uM antidote,100%
same,Mean % Survival,[7]; substance alone 25 uM,100%
same,Mean % Survival,[1]; 2 mM Alloxan + 2.5 uM antidote,100%
same,Mean % Survival,[1]; 2 mM Alloxan + 10 uM antidote,100%
same,Mean % Survival,[1]; substance alone 10 uM,100%
"1,4,8,11-tetraaza-1,4,8,11-tetra(2-piperidylethyl)cyclotetradecane [cyclam-piperidine]",Log Partition Coefficient Octanol:Water,[5],0.7
"CN(N=O)C(=O)N[C@H]1C(O)O[C@H](CO)[C@@H](O)[C@@H]1O (stereo partly drawn) [Streptozotocin, N-(methylnitrosocarbamoyl)-Dglucosamine, reference compound]",Mean % Survival,[3]; substance alone 100 uM,57%
"C=C(C)[C@H]1Cc2c(ccc3c2O[C@@H]2COc4cc(OC)c(OC)cc4[C@@H]2C3=O)O1 [Rotenone, reference compound]",Mean % Survival,[7]; substance alone 100 uM,60%
"(2-piperidylethyl)-{3-[(2-piperidylethyl)amino]propyl}amine [2,3,2-piperidine]",pKa(1),[2],9.9
same,pKa(2),[2],9.3
same,pKa(3),[2],6.4
same,pKa(4),[2],3.6
same,Mean % Survival,M. Luteus (ATCC 499732); [14],81%
same,Mean % Survival,M. Luteus (ATCC 499732); [15],81%
same,Mean % Survival,M. Luteus (ATCC 499732); [16],41%
same,Mean % Survival,"M. Luteus (ATCC 499732); 0.2 mM Diazoxide + 5 uM antidote, T20",100%
same,Mean % Survival,M. Luteus (ATCC 499732); [9],100%
same,Mean % Survival,"M. Luteus (ATCC 499732); 0.2 mM Diazoxide + 10 uM antidote, T20",100%
same,Mean % Survival,M. Luteus (ATCC 499732); [10],100%
same,Mean % Survival,"M. Luteus (ATCC 499732); 0.2 mM Diazoxide + 20 uM antidote, T20",100%
same,Mean % Survival,"M. Luteus (ATCC 499732); 0.2 mM Diazoxide + 20 uM antidote, T60",100%
same,Mean % Survival,M. Luteus (ATCC 499732); [20],100%
same,Mean % Survival,"M. Luteus (ATCC 499732); substance alone 50 uM, T20 (20 minutes)",100%
same,Mean % Survival,"M. Luteus (ATCC 499732); substance alone 50 uM, T60 (60 minutes)",100%
same,Mean % Survival,[3]; 100 uM Streptozotocin + 2.5 uM antidote,70%
same,Mean % Survival,[3]; [17],100%
same,Mean % Survival,[3]; 100 uM Streptozotocin + 20 uM antidote,100%
same,Mean % Survival,[3]; substance alone 20 uM,100%
same,Mean % Survival,S. aureus (ATCC 29213) [6]; 0.25 mM MPP^+ + 1uM antidote,54%
same,Mean % Survival,S. aureus (ATCC 29213) [6]; 0.25 mM MPP^+ + 2uM antidote,54%
same,Mean % Survival,S. aureus (ATCC 29213) [6]; 0.25 mM MPP^+ + 5uM antidote,69%
same,Mean % Survival,S. aureus (ATCC 29213) [6]; 0.25 mM MPP^+ + 7uM antidote,100%
same,Mean % Survival,S. aureus (ATCC 29213) [6]; substance alone 7.5 uM,100%
same,Mean % Survival,[7]; [24],100%
same,Mean % Survival,[7]; [25],100%
same,Mean % Survival,[7]; 100 uM Rotenone + 20 uM antidote,100%
same,Mean % Survival,[7]; 100 uM Rotenone + 50 uM antidote,100%
same,Mean % Survival,[7]; substance alone 50 uM,100%
same,Mean % Survival,S. aureus (ATCC 29213) [4]; 0.15 mM Diazoxide + 2.5 uM antidote,100%
same,Mean % Survival,S. aureus (ATCC 29213) [4]; [18],91%
same,Mean % Survival,S. aureus (ATCC 29213) [4]; 0.15 mM Diazoxide + 10 uM antidote,92%
same,Mean % Survival,S. aureus (ATCC 29213) [4]; substance alone 10 uM,100%
"C[n+]1ccc(-c2ccccc2)cc1 [MPP^+, reference compound]",Mean % Survival,S. aureus (ATCC 29213) [6]; substance alone 0.1 mM,31%
same,Mean % Survival,S. aureus (ATCC 29213) [6]; substance alone 0.15 mM,15%
same,Mean % Survival,S. aureus (ATCC 29213) [6]; substance alone 0.2 mM,6%
same,Mean % Survival,S. aureus (ATCC 29213) [6]; substance alone 0.25 mM,3%
"CC1=NS(=O)(=O)c2cc(Cl)ccc2N1 [Diazoxide, reference compound]",Mean % Survival,"M. Luteus (ATCC 499732); substance alone 0.2 mM, T20 (20 minutes)",22%
same,Mean % Survival,"M. Luteus (ATCC 499732); substance alone 0.2 mM, T60 (60 minutes)",1%
same,Mean % Survival,S. aureus (ATCC 29213) [4]; substance alone 0.15 mM,25%
"NCCSCCCSCCN [2,3,2-sulfur, 2-[3-(2-aminoethylthio)propylthio]ethylamine]",Mean % Survival,M. Luteus (ATCC 499732); [19],32%
same,Mean % Survival,M. Luteus (ATCC 499732); [21],67%
same,Mean % Survival,M. Luteus (ATCC 499732); [22],100%
same,Mean % Survival,M. Luteus (ATCC 499732); [23],100%
"N[C@@H](Cc1c[nH]cn1)C(=O)O [Histidine, reference compound]",Mean % Survival,E. coli (ATCC 35150),30%
same,Mean % Survival,"E. coli (ATCC 35150); 0.5 mM Paraquat + 1.0 mM antidote, 60 minutes",37%
same,Mean % Survival,"E. coli (ATCC 35150); substance alone 0.5 mM, 60 minutes",100%
same,Mean % Survival,"E. coli (ATCC 35150); substance alone 1 mM, 60 minutes",100%
same,Mean % Survival,M. Luteus (ATCC 499732); [11],54%
same,Mean % Survival,M. Luteus (ATCC 499732); [12],100%
same,Mean % Survival,M. Luteus (ATCC 499732); [13],100%
same,Mean % Survival,S. aureus (ATCC 29213) [6]; 0.15 mM MPP^+ + 0.5 mM antidote,64%
same,Mean % Survival,S. aureus (ATCC 29213) [6]; substance alone 0.5 mM,90%
same,Mean % Survival,S. aureus (ATCC 29213) [4]; 0.15 mM Diazoxide + 500 uM antidote,58%
same,Mean % Survival,S. aureus (ATCC 29213) [4]; substance alone 0.5 mM,100%
